From patent US20250230155A1 (Vanderbilt University, priority 2021, published 2025) come the findings set out here.

In this experiment the target is T1, human mAChR M4 (Homo sapiens, UniProt P08173).
T1 construct: expressed in transfected cells
T1 sequence (P08173 1-479): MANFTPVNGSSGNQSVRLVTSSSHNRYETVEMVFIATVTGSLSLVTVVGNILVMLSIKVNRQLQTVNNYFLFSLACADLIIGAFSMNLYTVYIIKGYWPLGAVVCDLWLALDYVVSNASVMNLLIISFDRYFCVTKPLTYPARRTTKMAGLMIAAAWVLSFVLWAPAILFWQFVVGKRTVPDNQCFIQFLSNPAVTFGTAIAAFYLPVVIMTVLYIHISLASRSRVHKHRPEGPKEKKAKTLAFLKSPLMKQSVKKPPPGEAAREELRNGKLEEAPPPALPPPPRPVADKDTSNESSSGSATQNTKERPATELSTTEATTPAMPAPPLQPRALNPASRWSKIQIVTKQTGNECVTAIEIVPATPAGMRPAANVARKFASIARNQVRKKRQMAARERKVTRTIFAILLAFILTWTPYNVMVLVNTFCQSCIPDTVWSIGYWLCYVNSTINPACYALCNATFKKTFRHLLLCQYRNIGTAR
In words: mAChR M4 cell-based functional assay (calcium mobilization, CHO-K1 hM4-Gqi5 cells). The conditions noted are these: for Emax at 30 µM: CHO-K1, % ACh maximum at 30 μM, human M4; for EC50: positive allosteric modulator activity, increase in the EC20 acetylcholine response, CHO-K1 hM4-Gqi5 cells, read-out: Human M4 EC50. In outline: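 Fluorescent calcium read-out (Fluo-4 AM, FDSS, 1 Hz) in hM4-Gqi5 CHO-K1 cells, 11-point 1:3 compound series. Agonism scored on compound addition, PAM activity as increase of the 144 s EC20 acetylcholine response, antagonism as decrease of the 230 s EC80 response; four-parameter logistic fits give EC50 and Emax.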

Broadly, the Emax is the size of the effect at its maximum, as opposed to the concentration needed. For orientation: EC50 means the concentration that produces a half-maximal response. For `Cc1cc(C(=O)N2Cc3ccncc3C2)nnc1N1CCc2ncc(N3CCCn4nccc43)cc2C1` [Example 512, (1,3-dihydro-2H-pyrrolo[3,4-c]pyridin-2-yl)(6-(3-(6,7-dihydropyrazolo[1,5-a]pyrimidin-4(5H)-yl)-7,8-dihydro-1,6-naphthyridin-6(5H)-yl)-5-methylpyridazin-3-yl)methanone], the Emax at 30 µM worked out at 95% and the EC50 was 0.019 µM.
`Cc1cc(C#N)nnc1N1CCc2ncc(Oc3ccccc3F)cc2C1` [Example 396, 6-(3-(2-fluorophenoxy)-7,8-dihydro-1,6-naphthyridin-6(5H)-yl)-5-methylpyridazine-3-carbonitrile]: the Emax at 30 µM was determined as 87% and the EC50 is 0.065 µM.
With `Cc1cc(C#N)cnc1N1CCc2ncc(N3CCOC(c4ccccn4)C3)cc2C1` (stereo not shown) [Example 387, 5-methyl-6-(3-(2-(pyridin-2-yl)morpholino)-7,8-dihydro-1,6-naphthyridin-6(5H)-yl)nicotinonitrile], the Emax at 30 µM turned out to be 71% and the EC50 stood at 0.861 µM.
With `Cc1cc(C(=O)N(C)C)nnc1N1CCc2ncc(N3CCCn4nccc43)cc2C1` [Example 556, 6-(3-(6,7-dihydropyrazolo[1,5-a]pyrimidin-4(5H)-yl)-7,8-dihydro-1,6-naphthyridin-6(5H)-yl)-N,N,5-trimethylpyridazine-3-carboxamide], the Emax at 30 µM came out at 87% and the EC50 is 1.46 µM.
In the same order, the values of `Cc1cc(C(=O)N2CC(c3cccnc3)C2)nnc1N1CCc2ncc(N3CCO[C@H](C)C3)cc2C1` [Example 541, (R)-(5-methyl-6-(3-(2-methylmorpholino)-7,8-dihydro-1,6-naphthyridin-6(5H)-yl)pyridazin-3-yl)(3-(pyridin-3-yl)azetidin-1-yl)methanone] are 101% and 0.061 µM.
As to `Cc1cc(C#N)cnc1N1CCc2ncc(-n3cccn3)cc2C1` [Example 344, 6-(3-(1H-pyrazol-1-yl)-7,8-dihydro-1,6-naphthyridin-6(5H)-yl)-5-methylnicotinonitrile], the maximal response (Emax) at 30 µM was determined as 88% and the EC50 was determined as 0.38 µM.
On to `[2H]C([2H])([2H])c1cnc2c(c1)CN(c1nnc(C(=O)NC3(c4cccnc4)CC3)cc1C)CC2` [Example 580, 5-methyl-6-(3-(methyl-d3)-7,8-dihydro-1,6-naphthyridin-6(5H)-yl)-N-(1-(pyridin-3-yl)cyclopropyl)pyridazine-3-carboxamide], for which the Emax at 30 µM amounted to 75% and the EC50 was found to be 0.108 µM.
Consider `Cc1cc(C(=O)NCc2ccncc2)cnc1N1CCc2ncccc2C1` [compound 61, 6-(7,8-dihydro-5H-1,6-naphthyridin-6-yl)-5-methyl-N-(4-pyridylmethyl)pyridine-3-carboxamide], for which the Emax at 30 µM was 67% and the EC50 was 1.63 µM.
In the same order, the values of `Cc1cc(C(=O)N2CC(C)(C#N)C2)nnc1N1CCc2ncc(N3CCCn4nccc43)cc2C1` [Example 519, 1-(6-(3-(6,7-dihydropyrazolo[1,5-a]pyrimidin-4(5H)-yl)-7,8-dihydro-1,6-naphthyridin-6(5H)-yl)-5-methylpyridazine-3-carbonyl)-3-methylazetidine-3-carbonitrile] are 80% and 0.014 µM.
Turning to `Cc1cc(C#N)cnc1N1CCc2ncc(-c3cc(F)cc(F)c3C)cc2C1` [Example 597, 6-(3-(3,5-difluoro-2-methylphenyl)-7,8-dihydro-1,6-naphthyridin-6(5H)-yl)-5-methylnicotinonitrile], the Emax at 30 µM came to 69% and the concentration for a half-maximal effect (EC50) came out at 2.87 µM.
In the case of `Cc1c(C#N)nnc(N2CCc3ncc(-c4cc(F)cnc4Cl)cc3C2)c1C` [compound 53, 6-[3-(2-chloro-5-fluoro-3-pyridyl)-7,8-dihydro-5H-1,6-naphthyridin-6-yl]-4,5-dimethyl-pyridazine-3-carbonitrile], the Emax at 30 µM amounted to 70% and the EC50 stood at 0.479 µM.
Take `Cn1nccc1Nc1cnc2c(c1)CN(c1nc(Cl)nc3c1COC3)CC2` [compound 288, 6-(2-chloro-5,7-dihydrofuro[3,4-d]pyrimidin-4-yl)-N-(1-methyl-1H-pyrazol-5-yl)-5,6,7,8-tetrahydro-1,6-naphthyridin-3-amine]: the EC50 is 1.22 µM.
On to `Cc1cc(C(=O)N2CC(F)C2)nnc1N1CCc2ncc(CC(F)(F)F)cc2C1` [Example 586, (3-fluoroazetidin-1-yl)(5-methyl-6-(3-(2,2,2-trifluoroethyl)-7,8-dihydro-1,6-naphthyridin-6(5H)-yl)pyridazin-3-yl)methanone], for which the Emax at 30 µM was found to be 99% and the EC50 came out at 0.176 µM.
Consider `O=C1c2cc(Br)c(N3CCc4ncc(C(F)(F)F)cc4C3)nc2OCCN1Cc1ccccc1` [Example 591, 4-benzyl-7-bromo-8-(3-(trifluoromethyl)-7,8-dihydro-1,6-naphthyridin-6(5H)-yl)-3,4-dihydropyrido[3,2-f][1,4]oxazepin-5(2H)-one], for which the maximum response (Emax) at 30 µM was 56% and the EC50 is 1.99 µM.
In the case of `Cc1cc(C(=O)NCc2cscn2)cnc1N1CCc2ncc(-c3ccc(C4CC4)nc3)cc2C1` [Example 484, 6-(3-(6-cyclopropylpyridin-3-yl)-7,8-dihydro-1,6-naphthyridin-6(5H)-yl)-5-methyl-N-(thiazol-4-ylmethyl)nicotinamide], the Emax at 30 µM came to 88% and the EC50 is 0.176 µM.
In the same order, the values of `Cc1cc(C(=O)NCc2ccc3c(c2)n(C)c(=O)n3C)cnc1N1CCc2ncccc2C1` [compound 158, 6-(7,8-dihydro-5H-1,6-naphthyridin-6-yl)-N-[(1,3-dimethyl-2-oxo-benzimidazol-5-yl)methyl]-5-methyl-pyridine-3-carboxamide] are 68% and 3.64 µM.
`Cc1cc(C(=O)NCc2nccs2)cnc1N1CCc2ncc(-c3cnn(C)c3)cc2C1` [compound 173, 5-methyl-6-[3-(1-methylpyrazol-4-yl)-7,8-dihydro-5H-1,6-naphthyridin-6-yl]-N-(thiazol-2-ylmethyl)pyridine-3-carboxamide]: the Emax at 30 µM worked out at 95% and the EC50 amounted to 0.0773 µM.
Take `Cc1cnccc1-c1cnc2c(c1)CN(c1nnc(C#N)c(C)c1C)CC2` [compound 77, 4,5-dimethyl-6-[3-(3-methyl-4-pyridyl)-7,8-dihydro-5H-1,6-naphthyridin-6-yl]pyridazine-3-carbonitrile]: the Emax at 30 µM came out at 89% and the EC50 turned out to be 0.198 µM.
Take `Cc1cc(C(=O)N2CCc3ccncc3C2)nnc1N1CCc2ncc(C(F)(F)F)cc2C1` [Example 499, (3,4-dihydro-2,7-naphthyridin-2(1H)-yl)(5-methyl-6-(3-(trifluoromethyl)-7,8-dihydro-1,6-naphthyridin-6(5H)-yl)pyridazin-3-yl)methanone]: the Emax at 30 µM amounted to 88% and the EC50 was determined as 2.67 µM.
Turning to `Cc1c(C#N)nnc(N2CCc3ncc(N4CCO[C@@H](c5ccccc5)C4)cc3C2)c1C` [Example 379, (S)-4,5-dimethyl-6-(3-(2-phenylmorpholino)-7,8-dihydro-1,6-naphthyridin-6(5H)-yl)pyridazine-3-carbonitrile], the Emax at 30 µM is 47% and the concentration giving a half-maximal response (EC50) turned out to be 3.6 µM.
On to `Cc1cc(C#N)cnc1N1CCc2ncc(N3CCCn4nc(C5CC5)cc43)cc2C1` [Example 415, 6-(3-(2-cyclopropyl-6,7-dihydropyrazolo[1,5-a]pyrimidin-4(5H)-yl)-7,8-dihydro-1,6-naphthyridin-6(5H)-yl)-5-methylnicotinonitrile], for which the Emax at 30 µM was found to be 72% and the EC50 amounted to 0.094 µM.
For `Cc1cc(C#N)nnc1N1Cc2cc(N3CCOCC3)cnc2C(C)C1` (single isomer, unassigned) [Example 407, 5-methyl-6-(8-methyl-3-morpholino-7,8-dihydro-1,6-naphthyridin-6(5H)-yl)pyridazine-3-carbonitrile], in that order: 91% and 0.611 µM.
On to `Cc1cc(C(=O)N2CC(c3cccnc3)C2)nnc1N1CCc2ncc(N3CCCn4nccc43)cc2C1` [Example 526, (6-(3-(6,7-dihydropyrazolo[1,5-a]pyrimidin-4(5H)-yl)-7,8-dihydro-1,6-naphthyridin-6(5H)-yl)-5-methylpyridazin-3-yl)(3-(pyridin-3-yl)azetidin-1-yl)methanone], for which the Emax at 30 µM was found to be 116% and the EC50 worked out at 0.017 µM.
For the molecule `Cc1cc(C(=O)NCc2ccncc2)nnc1N1CCc2ncc(N3CCCn4nccc43)cc2C1` [Example 490, 6-(3-(6,7-dihydropyrazolo[1,5-a]pyrimidin-4(5H)-yl)-7,8-dihydro-1,6-naphthyridin-6(5H)-yl)-5-methyl-N-(pyridin-4-ylmethyl)pyridazine-3-carboxamide], the Emax at 30 µM is 100% and the EC50 turned out to be 0.016 µM.
For `Cc1cc(C(=O)N2CCC2c2ccccc2)nnc1N1CCc2ncc(N3CCCn4nccc43)cc2C1` (stereo not shown) [Example 557, (6-(3-(6,7-dihydropyrazolo[1,5-a]pyrimidin-4(5H)-yl)-7,8-dihydro-1,6-naphthyridin-6(5H)-yl)-5-methylpyridazin-3-yl)(2-phenylazetidin-1-yl)methanone], the Emax at 30 µM worked out at 91% and the half-maximal effective concentration (EC50) was 0.166 µM.
